Data: patent publication US12522597B2, “Methods and compositions for modulating splicing” (Skyhawk Therapeutics, Inc., priority 2019, dated 2026)
Like-named read-outs stand apart in the source and are kept apart here.

Experiments:
[1] = tested on: Huntingtin (HTT) transcripts; test: Quantitative splicing assay (HTT), qPCR; format: cell-based; conditions: Homo sapiens, GM04724 (CAG 70/20) Huntington's disease patient lymphoblasts, 24 h
How it was run: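 GM04724 HD patient lymphoblasts (CAG 70/20) dosed 24 h with compound from 2.5 uM to 0.15 nM (0.1% DMSO). Lysates converted to cDNA; TaqMan qPCR measured compound-induced inclusion of a cryptic exon in HTT intron 49.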

mHTT protein = mHTT protein assay (2B7-MW1, Mesoscale Discovery); format: cell-based, human; conditions: GM04724 (CAG 70/20) Huntington's disease patient lymphoblast cells, 48 hours, 2B7-MW1 MSD; read-out: HTT Potency - Protein EC50 mHTT (average)
How it was run: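 GM04724 Huntington's patient lymphoblasts (CAG 70/20) were treated for 48 h at 10 μM to 0.6 nM. mHTT was quantified by 2B7-MW1 MSD immunoassay, whose signal depends on polyQ expansion and HTT fragment size. Viability was run on a parallel plate by CellTiter-Glo.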

MDR1 = test: MDCK-MDR1 permeability assay (BBB penetration potential); format: in vitro ADME; conditions: dog; for efflux ratio at 120 min, 5 μM: MDCK-MDR1, pH 7.4, MDCK-MDR1: Efflux; for Papp A→B at 120 min, 5 μM: MDCK-MDR1, pH 7.4, MDCK-MDR1: Papp A-B; for Papp B→A at 120 min, 5 μM: MDCK-MDR1, pH 7.4, MDCK-MDR1: Papp B-A
Experimental: (§1) Each determination is performed in duplicate. […] Analytical conditions are outlined below.

[2] = tested on: MDR1-MDCK cell monolayers; test: as above; format: in vitro ADME; conditions: dog, MDCK-MDR1, 120 min, 5 μM, pH 7.4
Experimental: as §1

[3] = qPCR HTTex49_50, read-out: HTT Potency - Splicing: E49-50 EC50 (average)
[4] = qPCR cryptic exon 49b inclusion, read-out: HTT Potency - Splicing: E49b EC50 (average)

Row | SMILES | EC50 [1, 3] [nM] | EC50 [1, 4] [nM] | EC50 (mHTT protein) [nM] | efflux ratio at 120 min, 5 μM (MDR1) | Papp A→B at 120 min, 5 μM (MDR1) [nm/s] | Papp B→A at 120 min, 5 μM (MDR1) [nm/s] | MDCK-MDR1: % Recov A-B [2] [%] | MDCK-MDR1: % Recov B-A [2] [%]
1 | Cn1c(=O)oc2cc(-c3ccc(O[C@H]4C[C@@H]5CCC[C@@H](N5)[C@H]4F)nn3)c(O)cc21 (single isomer, unassigned) [74-ENT2] | 501 to 10000 | 501 to 10000 | 501 to 10000 | 5 | 69.6 | 314 | 87 | 75
2 | Cn1cc(-c2ccc(-c3ccc(O[C@@H]4C[C@H]5CCC[C@H](N5)[C@H]4F)nn3)c(O)c2)cn1 (single isomer, unassigned) [49-ENT1] | 51 to 100 | 51 to 100 | 51 to 100 | 2 | 53.6 | 118 | 49 | 82
3 | Cn1ccc2cc(O)c(-c3ccc(O[C@H]4C[C@@H]5CC[C@@H](N5)[C@H]4F)nn3)cc2c1=O (single isomer, unassigned) [129-ENT1] | 101 to 500 | 101 to 500 | 16 to 50 | 12 | 42.9 | 528 | 89 | 91
4 | Cc1ncc(-c2ccc(-c3ccc(O[C@H]4C[C@@H]5CCC[C@@H](N5)[C@H]4F)nn3)c(O)c2)s1 (single isomer, unassigned) [96-ENT2] | 16 to 50 | 16 to 50 | 16 to 50 | 2 | 67.3 | 116 | 35 | 67
5 | Cn1cnc(-c2ccc(-c3ccc(O[C@@H]4C[C@@]5(C)CCC[C@](C)(N5)[C@@H]4F)nn3)c(O)c2)cc1=O (single isomer, unassigned) [139-ENT1] | 16 to 50 | 16 to 50 | 0.01 to 15 | 14 | 23.6 | 321 | 75 | 75
6 | Oc1cc(-c2cn[nH]c2)c(F)cc1-c1ccc(O[C@@H]2C[C@H]3CCC[C@H](N3)[C@@H]2F)nn1 (single isomer, unassigned) [56-ENT1] | 0.01 to 15 | 0.01 to 15 | 0.01 to 15 | 15 | 26.3 | 390 | 55 | 74
7 | Cn1ccc2cc(-c3ccc(O[C@@H]4C[C@H]5CC[C@H](N5)[C@@H]4F)nn3)c(O)cc2c1=O (single isomer, unassigned) [126-ENT2] | 501 to 10000 | 101 to 500 | 101 to 500 | 13 | 35.1 | 455 | 93 | 92
8 | Cn1ccc2cc(-c3ccc(O[C@H]4CC5CCC[C@@H](N5)[C@H]4F)nn3)c(O)cc2c1=O (single isomer, unassigned) [125-ENT1] | 101 to 500 | 51 to 100 | 51 to 100 | 23 | 33.5 | 760 | 101 | 91
9 | Cn1cc(-c2cc(O)c(-c3ccc(O[C@H]4C[C@@H]5CCC[C@@H](N5)[C@H]4F)nn3)cc2Cl)cn1 (single isomer, unassigned) [120-ENT2] | 51 to 100 | 16 to 50 | 51 to 100 | 7 | 44.7 | 302 | 28 | 71
10 | Oc1cc(-n2ccc(F)n2)ccc1-c1ccc(O[C@H]2C[C@@H]3CCC[C@@H](N3)[C@H]2F)nn1 (single isomer, unassigned) [115-ENT2] | 16 to 50 | 16 to 50 | 0.01 to 15 | 2 | 69 | 120 | 43 | 67
11 | Oc1cc(-c2ccn3ccnc3c2)ccc1-c1ccc(O[C@@H]2C[C@H]3CCC[C@H](N3)[C@@H]2F)nn1 (single isomer, unassigned) [83-ENT1] | 501 to 10000 | 501 to 10000 | 101 to 500 | 23 | 10.5 | 238 | 48 | 64
12 | Oc1cc(-c2cn[nH]c2)c(F)cc1-c1ccc(O[C@H]2C[C@@H]3CCC[C@@H](N3)[C@H]2F)nn1 (single isomer, unassigned) [56-ENT2] | 0.01 to 15 | 0.01 to 15 | 0.01 to 15 | 13 | 26.9 | 360 | 68 | 79
13 | Cn1ccc2cc(-c3ccc(O[C@H]4C[C@]5(C)CCC[C@@](C)(N5)[C@H]4F)nn3)c(O)cc2c1=O (single isomer, unassigned) [156-ENT2] | 16 to 50 | 16 to 50 | 0.01 to 15 | 9 | 49 | 463 | 80 | 99
14 | Oc1cc(-c2cn[nH]c2)ccc1-c1ccc(O[C@H]2C[C@@H]3CC(F)(F)[C@H](C2)N3)nn1 (single isomer, unassigned) [46-ENT1] | 501 to 10000 | 501 to 10000 | 501 to 10000 | 3 | 183 | 470 | 70 | 88
15 | Oc1cc(-c2nnco2)ccc1-c1ccc(O[C@@H]2C[C@H]3CCC[C@H](N3)[C@@H]2F)nn1 (single isomer, unassigned) [117-ENT1] | 101 to 500 | 101 to 500 | 51 to 100 | 6 | 79.2 | 475 | 85 | 106
16 | Cn1ccc(-c2cc(O)c(-c3ccc(O[C@H]4C[C@@H]5CCC[C@@H](N5)[C@H]4F)nn3)cc2F)cc1=O (single isomer, unassigned) [58-ENT2] | 16 to 50 | 16 to 50 | 0.01 to 15 | 47 | 11.7 | 551 | 83 | 90
17 | Oc1cc(-c2nnco2)ccc1-c1ccc(O[C@H]2C[C@@H]3CC[C@@H](N3)[C@H]2F)nn1 (single isomer, unassigned) [140-ENT1] | 101 to 500 | 101 to 500 | 101 to 500 | 2 | 181 | 433 | 92 | 95
